Assay results taken from PubChem BioAssay AID330 (DTP/NCI, 2004).
Values joined by “and” are separate entries in the source; they are usually repeats but may differ in a detail not shown here. Equal entries are not always repeated. Toxic doses and inconclusive results are not listed. The calls were made as follows: active = survival T/C of 150% or more; inactive = T/C below 125% in these data. Numbered stars: 1 amine (or outer) side, 2 acyl side, 3 side chain; on linkers, the order of the positions; unused ones are H or OH. Peptide text beside a SMILES is read from it. CO = O=C([*:1])[*:2]

System: P388 leukemia ip, CD2F1 mice, survival T/C
Experiment: NCI In Vivo Anticancer Drug Screen. Data for tumor model P388 Leukemia (intraperitoneal) in CD2F1 (CDF1) mice
Conditions: endpoint: median survival time, higher = longer survival
Method in brief: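 Mice carrying the transplanted tumor received test compound or vehicle. Survival was recorded in each group, and the value is the treated-group measurement divided by that of the vehicle-treated control group.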

[1] = dose: 50.0 mg/kg/injection, schedule: Q01DX009 (ip), vehicle: saline with Tween-80
[2] = dose: 100.0 mg/kg/injection, schedule: Q01DX009 (ip), vehicle: saline with Tween-80
[3] = dose: 200.0 mg/kg/injection, schedule: Q01DX009 (ip), vehicle: saline with Tween-80
[4] = dose: 60.0 mg/kg/injection, schedule: Q01DX005 (ip), vehicle: saline with Tween-80
[5] = dose: 50.0 mg/kg/injection, schedule: Q01DX005 (ip), vehicle: saline with Tween-80
[6] = dose: 100.0 mg/kg/injection, schedule: Q01DX005 (ip), vehicle: saline with Tween-80
[7] = dose: 200.0 mg/kg/injection, schedule: Q01DX005 (ip), vehicle: saline with Tween-80

Measured: T/C

C=C1C(=O)OC2C1C(OC(=O)/C(C)=C\C)CC(C)=C1C(=O)C3OC3(C)C12O (stereo not drawn)
inactive: dose: 12.5 mg/kg/injection, schedule: Q01DX005 (ip), vehicle: saline + alcohol 115 % of control | dose: 25.0 mg/kg/injection, schedule: Q01DX005 (ip), vehicle: saline + alcohol 116 % of control | dose: 50.0 mg/kg/injection, schedule: Q01DX005 (ip), vehicle: saline + alcohol 115 % of control

COc1cc2c(cc1C(C)c1ccc(O)cc1)OCO2 (stereo not drawn)
inactive: dose: 50.0 mg/kg/injection, schedule: Q01DX005 (ip), vehicle: distilled water + Tween-80 100 % of control | dose: 100.0 mg/kg/injection, schedule: Q01DX005 (ip), vehicle: distilled water + Tween-80 97 % of control | dose: 200.0 mg/kg/injection, schedule: Q01DX005 (ip), vehicle: distilled water + Tween-80 96 % of control

OCC(F)(F)C(F)(F)C(F)(F)F
inactive: dose: 100.0 mg/kg/injection, schedule: Q04DX003 (ip), vehicle: saline 104 % of control | dose: 200.0 mg/kg/injection, schedule: Q04DX003 (ip), vehicle: saline 90 % of control | dose: 400.0 mg/kg/injection, schedule: Q04DX003 (ip), vehicle: saline 90 % of control

CC(=O)Oc1ccccc1C(=O)O
inactive: dose: 31.3 mg/kg/injection, schedule: Q01DX009 (ip), vehicle: saline with Tween-80 90 % of control | [1] 99 % of control | dose: 62.5 mg/kg/injection, schedule: Q01DX009 (ip), vehicle: saline with Tween-80 100 % of control | [2] 107 % of control | dose: 125.0 mg/kg/injection, schedule: Q01DX009 (ip), vehicle: saline with Tween-80 104 % of control | [3] 95 % of control

C[Si](C)(C)O[C@@H]1CCCC1N (stereo partly drawn)
inactive: [4] 106 % of control | dose: 120.0 mg/kg/injection, schedule: Q01DX005 (ip), vehicle: saline with Tween-80 97 % of control | dose: 240.0 mg/kg/injection, schedule: Q01DX005 (ip), vehicle: saline with Tween-80 105 % of control

S=C1N(c2ccc(Br)cc2)C2=Nc3ccccc3SC(=C2N=Nc2ccc(Br)cc2)N1c1ccc(Cl)cc1
inactive: [5] 93 % of control | [6] 86 % of control | [7] 91 % of control

COC(=O)C1=CCOc2c1c(C(=O)OC)nn2C
inactive: [5] 97 % of control | [6] 98 % of control | [7] 96 % of control

CCOC(=O)N1Cc2cc3ncccc3nc2C1
inactive: dose: 25.0 mg/kg/injection, schedule: Q01DX005 (ip), vehicle: Klucel (hydroxypropylcellulose) (HPC) 111 % of control | dose: 50.0 mg/kg/injection, schedule: Q01DX005 (ip), vehicle: Klucel (hydroxypropylcellulose) (HPC) 100 % of control

Nc1nc(N)c2c(n1)=NC(c1cccc3ccccc13)N=2 (stereo not drawn)
inactive: dose: 25.0 mg/kg/injection, schedule: Q01DX009 (ip), vehicle: other 101 % of control | dose: 50.0 mg/kg/injection, schedule: Q01DX009 (ip), vehicle: other 106 % of control | dose: 100.0 mg/kg/injection, schedule: Q01DX009 (ip), vehicle: other 102 % of control | dose: 200.0 mg/kg/injection, schedule: Q01DX009 (ip), vehicle: other 99 % of control | dose: 400.0 mg/kg/injection, schedule: Q01DX009 (ip), vehicle: other 106 % of control

CN(C)C=C1C=c2cc(C(=O)c3ccccc3)c(=O)c(C(=O)c3ccccc3)cc2=C1
inactive: dose: 100.0 mg/kg/injection, schedule: Q01DX001 (ip), vehicle: saline 108 % of control | dose: 200.0 mg/kg/injection, schedule: Q01DX001 (ip), vehicle: saline 108 % of control | dose: 400.0 mg/kg/injection, schedule: Q01DX001 (ip), vehicle: saline 97 % of control

O=C1NN(c2ccccc2)C(=O)/C1=C\c1ccccc1O
inactive: dose: 25.0 mg/kg/injection, schedule: Q01DX009 (ip), vehicle: saline with Tween-80 100 % of control and 96 % of control | dose: 43.75 mg/kg/injection, schedule: Q01DX005 (ip), vehicle: Klucel (hydroxypropylcellulose) (HPC) 104 % of control | dose: 43.75 mg/kg/injection, schedule: Q01DX009 (ip), vehicle: Klucel (hydroxypropylcellulose) (HPC) 95 % of control | [1] 94 % of control and 98 % of control | dose: 87.5 mg/kg/injection, schedule: Q01DX005 (ip), vehicle: Klucel (hydroxypropylcellulose) (HPC) 97 % of control | [2] 86 % of control and 97 % of control | dose: 175.0 mg/kg/injection, schedule: Q01DX005 (ip), vehicle: Klucel (hydroxypropylcellulose) (HPC) 98 % of control | dose: 175.0 mg/kg/injection, schedule: Q01DX009 (ip), vehicle: Klucel (hydroxypropylcellulose) (HPC) 102 % of control | [3] 86 % of control and 96 % of control | dose: 350.0 mg/kg/injection, schedule: Q01DX005 (ip), vehicle: Klucel (hydroxypropylcellulose) (HPC) 92 % of control | dose: 350.0 mg/kg/injection, schedule: Q01DX009 (ip), vehicle: Klucel (hydroxypropylcellulose) (HPC) 109 % of control | dose: 400.0 mg/kg/injection, schedule: Q01DX009 (ip), vehicle: saline with Tween-80 111 % of control

CC(C)C(NC(=O)C(CCCN=C(N)N)NC(=O)NC(Cc1ccccc1)C(=O)O)C(=O)NC(C=O)Cc1ccccc1 (stereo not drawn) ({Phe-CO}-Arg-Val-Phe-aldehyde; configuration not given here)
inactive: dose: 8.25 mg/kg/injection, schedule: Q01DX005 (ip), vehicle: Klucel (hydroxypropylcellulose) (HPC) 95 % of control | dose: 8.75 mg/kg/injection, schedule: Q01DX005 (ip), vehicle: Klucel (hydroxypropylcellulose) (HPC) 99 % of control | dose: 16.5 mg/kg/injection, schedule: Q01DX005 (ip), vehicle: Klucel (hydroxypropylcellulose) (HPC) 92 % of control | dose: 17.5 mg/kg/injection, schedule: Q01DX005 (ip), vehicle: Klucel (hydroxypropylcellulose) (HPC) 99 % of control | dose: 33.0 mg/kg/injection, schedule: Q01DX005 (ip), vehicle: Klucel (hydroxypropylcellulose) (HPC) 93 % of control | dose: 35.0 mg/kg/injection, schedule: Q01DX005 (ip), vehicle: Klucel (hydroxypropylcellulose) (HPC) 93 % of control | dose: 66.0 mg/kg/injection, schedule: Q01DX005 (ip), vehicle: Klucel (hydroxypropylcellulose) (HPC) 92 % of control | dose: 70.0 mg/kg/injection, schedule: Q01DX005 (ip), vehicle: Klucel (hydroxypropylcellulose) (HPC) 87 % of control

O=C(OCCO)c1ccccc1-c1c2cc3cc(Br)c(O)c(Br)c3oc-2c(Br)c(=O)c1Br
inactive: dose: 60.0 mg/kg/injection, schedule: Q01DX005 (ip), vehicle: saline 100 % of control | dose: 120.0 mg/kg/injection, schedule: Q01DX005 (ip), vehicle: saline 94 % of control | dose: 240.0 mg/kg/injection, schedule: Q01DX005 (ip), vehicle: saline 105 % of control

CNC(=O)N(C)CP(=O)(CN(C)C(=O)NC)CN(C)C(=O)NC
inactive: dose: 50.0 mg/kg/injection, schedule: Q01DX009 (ip), vehicle: saline 97 % of control | dose: 100.0 mg/kg/injection, schedule: Q01DX009 (ip), vehicle: saline 100 % of control | dose: 200.0 mg/kg/injection, schedule: Q01DX009 (ip), vehicle: saline 99 % of control

C/C=C(\C)[C@H](O)C(COCc1ccccc1)NS(=O)(=O)c1ccc(C)cc1 (stereo partly drawn)
inactive: dose: 60.0 mg/kg/injection, schedule: Q01DX005 (ip), vehicle: Klucel (hydroxypropylcellulose) (HPC) 100 % of control | dose: 120.0 mg/kg/injection, schedule: Q01DX005 (ip), vehicle: Klucel (hydroxypropylcellulose) (HPC) 100 % of control | dose: 240.0 mg/kg/injection, schedule: Q01DX005 (ip), vehicle: Klucel (hydroxypropylcellulose) (HPC) 92 % of control

Cn1c(=O)[nH]c2nnc(-c3ccccc3)nc2c1=O
inactive: dose: 50.0 mg/kg/injection, schedule: Q01DX009 (ip), vehicle: Klucel (hydroxypropylcellulose) (HPC) 107 % of control | dose: 100.0 mg/kg/injection, schedule: Q01DX009 (ip), vehicle: Klucel (hydroxypropylcellulose) (HPC) 106 % of control

O=C(O)c1c[nH]c2cc(-n3cccc3)ccc2c1=O
inactive: dose: 15.0 mg/kg/injection, schedule: Q01DX005 (ip), vehicle: saline with Tween-80 102 % of control | dose: 30.0 mg/kg/injection, schedule: Q01DX005 (ip), vehicle: saline with Tween-80 101 % of control | [4] 102 % of control and 88 % of control
